Laboratory results published in PubChem BioAssay (NCI).
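Results reflect a 48-hour exposure of cells in 96-well plates to compound at five concentrations. GI50 marks 50% less growth. At the TGI there is no net growth.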

What was measured:
Test in all cases: NCI tumour cell line growth inhibition, 48 h
786-0 renal = test system: 786-0 renal
A498 renal = test system: A498 renal
A549 NSCLC = test system: A549 NSCLC
ACHN renal = test system: ACHN renal
BT-549 breast = test system: BT-549 breast
CAKI-1 renal = test system: CAKI-1 renal
COLO 205 colon = test system: COLO 205 colon
DU-145 prostate = test system: DU-145 prostate
EKVX NSCLC = test system: EKVX NSCLC
HCC-2998 colon = test system: HCC-2998 colon
HCT-116 colon = test system: HCT-116 colon
HCT-15 colon = test system: HCT-15 colon
HL-60(TB) leukemia = test system: HL-60(TB) leukemia
HOP-62 NSCLC = test system: HOP-62 NSCLC
HOP-92 NSCLC = test system: HOP-92 NSCLC
HS 578T breast = test system: HS 578T breast
HT29 colon = test system: HT29 colon
IGROV1 ovarian = test system: IGROV1 ovarian
K-562 leukemia = test system: K-562 leukemia
KM12 colon = test system: KM12 colon
LOX IMVI melanoma = test system: LOX IMVI melanoma
M14 melanoma = test system: M14 melanoma
MALME-3M melanoma = test system: MALME-3M melanoma
MCF7 breast = test system: MCF7 breast
MDA-MB-231 breast = test system: MDA-MB-231 breast
MDA-MB-435 = test system: MDA-MB-435
MOLT-4 leukemia = test system: MOLT-4 leukemia
NCI-H226 lung = test system: NCI-H226 lung
NCI-H460 lung = test system: NCI-H460 lung
NCI-H522 lung = test system: NCI-H522 lung
NCI/ADR-RES ovarian = test system: NCI/ADR-RES ovarian
OVCAR-3 ovarian = test system: OVCAR-3 ovarian
OVCAR-4 ovarian = test system: OVCAR-4 ovarian
OVCAR-5 ovarian = test system: OVCAR-5 ovarian
OVCAR-8 ovarian = test system: OVCAR-8 ovarian
PC-3 prostate = test system: PC-3 prostate
RPMI-8226 leukemia = test system: RPMI-8226 leukemia
RXF 393 renal = test system: RXF 393 renal
SF-268 CNS = test system: SF-268 CNS
SF-295 CNS = test system: SF-295 CNS
SF-539 CNS = test system: SF-539 CNS
SK-MEL-2 melanoma = test system: SK-MEL-2 melanoma
SK-MEL-28 melanoma = test system: SK-MEL-28 melanoma
SK-MEL-5 melanoma = test system: SK-MEL-5 melanoma
SK-OV-3 ovarian = test system: SK-OV-3 ovarian
SN12C renal = test system: SN12C renal
SNB-19 CNS = test system: SNB-19 CNS
SNB-75 CNS = test system: SNB-75 CNS
SR leukemia = test system: SR leukemia
SW-620 colon = test system: SW-620 colon
T-47D breast = test system: T-47D breast
TK-10 renal = test system: TK-10 renal
U251 CNS = test system: U251 CNS
UACC-257 melanoma = test system: UACC-257 melanoma
UACC-62 melanoma = test system: UACC-62 melanoma
UO-31 renal = test system: UO-31 renal

CCn1c2ccc(/C=N/OCCCN(C)C)cc2c2cc(/C=N/OCCCN(C)C)ccc21
GI50 (786-0 renal): 1.55 µM | TGI (786-0 renal): 3.2 µM | GI50 (A498 renal): 4.45 µM | TGI (A498 renal): 17.2 µM | GI50 (A549 NSCLC): 1.59 µM | TGI (A549 NSCLC): 3.01 µM | GI50 (ACHN renal): 1.72 µM | TGI (ACHN renal): 3.13 µM | GI50 (BT-549 breast): 1.71 µM | TGI (BT-549 breast): 3.22 µM | GI50 (CAKI-1 renal): 1.43 µM | TGI (CAKI-1 renal): 2.74 µM | GI50 (COLO 205 colon): 1.61 µM | TGI (COLO 205 colon): 3.05 µM | GI50 (DU-145 prostate): 3.46 µM | TGI (DU-145 prostate): 12.3 µM | GI50 (EKVX NSCLC): 3.26 µM | TGI (EKVX NSCLC): 13.7 µM | GI50 (HCC-2998 colon): 1.51 µM | TGI (HCC-2998 colon): 2.95 µM | GI50 (HCT-116 colon): 1.27 µM | TGI (HCT-116 colon): 2.7 µM | GI50 (HCT-15 colon): 1.75 µM | TGI (HCT-15 colon): 3.96 µM | GI50 (HL-60(TB) leukemia): 1.68 µM | TGI (HL-60(TB) leukemia): 3.95 µM | GI50 (HOP-62 NSCLC): 4.64 µM | TGI (HOP-62 NSCLC): 18.9 µM | GI50 (HOP-92 NSCLC): 1.7 µM | TGI (HOP-92 NSCLC): 8.22 µM | GI50 (HS 578T breast): 2.52 µM | TGI (HS 578T breast): 7.95 µM | GI50 (HT29 colon): 1.52 µM | TGI (HT29 colon): 3.51 µM | GI50 (IGROV1 ovarian): 3.08 µM | TGI (IGROV1 ovarian): 10.3 µM | GI50 (K-562 leukemia): 1.49 µM | TGI (K-562 leukemia): 3.63 µM | GI50 (KM12 colon): 3.24 µM | TGI (KM12 colon): 13.7 µM | GI50 (LOX IMVI melanoma): 1.5 µM | TGI (LOX IMVI melanoma): 2.94 µM | GI50 (M14 melanoma): 1.7 µM | TGI (M14 melanoma): 3.23 µM | GI50 (MALME-3M melanoma): 1.8 µM | TGI (MALME-3M melanoma): 3.4 µM | GI50 (MCF7 breast): 1.49 µM | TGI (MCF7 breast): 3.07 µM | GI50 (MDA-MB-231 breast): 2.23 µM | TGI (MDA-MB-231 breast): 5.34 µM | GI50 (MDA-MB-435): 1.48 µM | TGI (MDA-MB-435): 2.84 µM | GI50 (MOLT-4 leukemia): 1.92 µM | TGI (MOLT-4 leukemia): 6.21 µM | GI50 (NCI-H226 lung): 10 µM | TGI (NCI-H226 lung): 25.2 µM | GI50 (NCI-H460 lung): 2.02 µM | TGI (NCI-H460 lung): 4.36 µM | GI50 (NCI-H522 lung): 1.73 µM | TGI (NCI-H522 lung): 3.43 µM | GI50 (NCI/ADR-RES ovarian): 1.97 µM | TGI (NCI/ADR-RES ovarian): 4.89 µM | GI50 (OVCAR-3 ovarian): 2.08 µM | TGI (OVCAR-3 ovarian): 5.28 µM | GI50 (OVCAR-4 ovarian): 1.73 µM | TGI (OVCAR-4 ovarian): 3.35 µM | GI50 (OVCAR-5 ovarian): 2.88 µM | TGI (OVCAR-5 ovarian): 11.5 µM | GI50 (OVCAR-8 ovarian): 2.07 µM | TGI (OVCAR-8 ovarian): 4.88 µM | GI50 (PC-3 prostate): 2.51 µM | TGI (PC-3 prostate): 10.9 µM | GI50 (RPMI-8226 leukemia): 1.77 µM | TGI (RPMI-8226 leukemia): 4.08 µM | GI50 (RXF 393 renal): 1.18 µM | TGI (RXF 393 renal): 2.49 µM | GI50 (SF-268 CNS): 3.69 µM | TGI (SF-268 CNS): 14.2 µM | GI50 (SF-295 CNS): 1.94 µM | TGI (SF-295 CNS): 3.82 µM | GI50 (SF-539 CNS): 1.62 µM | TGI (SF-539 CNS): 2.99 µM | GI50 (SK-MEL-2 melanoma): 15.7 µM | TGI (SK-MEL-2 melanoma): 30.3 µM | GI50 (SK-MEL-28 melanoma): 1.65 µM | TGI (SK-MEL-28 melanoma): 3.18 µM | GI50 (SK-MEL-5 melanoma): 1.8 µM | TGI (SK-MEL-5 melanoma): 3.23 µM | GI50 (SK-OV-3 ovarian): 16.4 µM | TGI (SK-OV-3 ovarian): 31.2 µM | GI50 (SN12C renal): 9.08 µM | TGI (SN12C renal): 21.5 µM | GI50 (SNB-19 CNS): 3.65 µM | TGI (SNB-19 CNS): 14 µM | GI50 (SNB-75 CNS): 1.68 µM | TGI (SNB-75 CNS): 3.93 µM | GI50 (SR leukemia): 1.83 µM | TGI (SR leukemia): 4.38 µM | GI50 (SW-620 colon): 1.81 µM | TGI (SW-620 colon): 3.78 µM | GI50 (T-47D breast): 1.8 µM | TGI (T-47D breast): 3.82 µM | GI50 (TK-10 renal): 14.1 µM | TGI (TK-10 renal): 28.2 µM | GI50 (U251 CNS): 1.62 µM | TGI (U251 CNS): 3.14 µM | GI50 (UACC-257 melanoma): 1.68 µM | TGI (UACC-257 melanoma): 3.09 µM | GI50 (UACC-62 melanoma): 1.92 µM | TGI (UACC-62 melanoma): 3.87 µM | GI50 (UO-31 renal): 1.5 µM | TGI (UO-31 renal): 3.24 µM
